Assays:
[1] = test system: cows seized by ketosis; assay: Pharmacological test: oral administration of granules to cows seized by ketosis once daily for 6 weeks, blood and urine components with time; format: in vivo; on Ketone bodies in urine: key: +++: Detected noticeably; ++: Detected clearly; +: Slightly detected; -: Not detected
Procedure: Pharmacological tests for the active ingredient of pharmaceutical composition of the present invention were conducted, by making the active ingredient into granules as in Example 1 and forcibly administering the granules orally to cows seized by ketosis in a predetermined dose once daily for 6 weeks. Examinations of various check items were made for bloods and urines taken from the cows before and 1, 3 and 6 weeks after the administration. In serum biochemical diagnosis, bloods were taken, coagulated and then subjected to centrifugation (3,000 rpm, 15 min.) to obtain respective serums and these serums were used. Blood sugar level was determined by a method using a glucose oxidase; free fatty acids were determined by an ACS-ACO-POD method; and ketone bodies in blood were determined by a diffusion colorimetry using salicyl aldehyde (THIN-ROBERTSON method). Ketone bodies in urine were determined by the use of Labstix (Sankyo Miles).
50 Parts of a compound No. 6, 15.0 parts of light silicic acid anhydride, 5.0 parts of precipitated calcium carbonate, 5.0 parts of corn starch, 2.0 parts of crystalline cellulose, 5.0 parts of a polyvinyl alcohol and 30 parts of water are homogeneously mixed and kneaded. Then, the mixture is ground, pelletized, dried and sifted to prepare granules. The granules are used for curing of ketosis of cows.

[2] = test system: male mice; assay: Toxicity, LD50 (male mice); details: male mice
[3] = Toxicity, LD50 (male mice); details: mouse, in vivo
[4] = 77.2 mg/kg oral once daily, 1 week after adm.
[5] = 77.2 mg/kg oral once daily, 3 weeks after adm.
[6] = 77.2 mg/kg oral once daily, 6 weeks after adm.
[7] = 77.2 mg/kg oral once daily, before adm.
[8] = 25 mg/kg oral once daily, 1 week after adm.
[9] = 25 mg/kg oral once daily, 3 weeks after adm.
[10] = 25 mg/kg oral once daily, 6 weeks after adm.
[11] = 25 mg/kg oral once daily, before adm.
[12] = 50 mg/kg oral once daily, 1 week after adm.
[13] = 50 mg/kg oral once daily, 3 weeks after adm.
[14] = 50 mg/kg oral once daily, 6 weeks after adm.
[15] = 50 mg/kg oral once daily, before adm.
[16] = 100 mg/kg oral once daily, 1 week after adm.
[17] = 100 mg/kg oral once daily, 3 weeks after adm.
[18] = 100 mg/kg oral once daily, 6 weeks after adm.
[19] = 100 mg/kg oral once daily, before adm.

Compound: CC(C)OC(=O)C(C(=O)OC(C)C)=C1SC=CS1 [compound 4]
- Acetoacetic acid in blood [1, 4]: 50 µmol/L
- Blood sugar level [1, 4]: 40.3 mg/dL
- Free fatty acids in blood [1, 4]: 428 μEq/l
- Ketone bodies in urine [1, 4]: ++
- Acetoacetic acid in blood [1, 5]: 142 µmol/L
- Blood sugar level [1, 5]: 55.4 mg/dL
- Free fatty acids in blood [1, 5]: 303 μEq/l
- Ketone bodies in urine [1, 5]: +
- Acetoacetic acid in blood [1, 6]: 146 µmol/L
- Blood sugar level [1, 6]: 57.7 mg/dL
- Free fatty acids in blood [1, 6]: 238 μEq/l
- Ketone bodies in urine [1, 6]: -
- Acetoacetic acid in blood [1, 7]: 446 µmol/L
- Blood sugar level [1, 7]: 43.2 mg/dL
- Free fatty acids in blood [1, 7]: 1,377 μEq/l
- Ketone bodies in urine [1, 7]: +++
- LD50 [2]: 3,120 mg/kg

Compound: CC(C)OC(=O)C(C(=O)OC(C)C)=C1SCCS1 [compound 6, diisopropyl 1,3-dithiolan-2-ylindene malonate]
- Acetoacetic acid in blood [1, 8]: 630 µmol/L
- Blood sugar level [1, 8]: 23.5 mg/dL
- Free fatty acids in blood [1, 8]: 550 μEq/l
- Ketone bodies in urine [1, 8]: ++
- Acetoacetic acid in blood [1, 9]: 156 µmol/L
- Blood sugar level [1, 9]: 52.9 mg/dL
- Free fatty acids in blood [1, 9]: 201 μEq/l
- Acetoacetic acid in blood [1, 10]: 104 µmol/L
- Blood sugar level [1, 10]: 59.0 mg/dL
- Free fatty acids in blood [1, 10]: 351 μEq/l
- Acetoacetic acid in blood [1, 11]: 662 µmol/L
- Blood sugar level [1, 11]: 30.6 mg/dL
- Free fatty acids in blood [1, 11]: 1,148 μEq/l
- Ketone bodies in urine [1, 11]: +++
- Acetoacetic acid in blood [1, 12]: 1,344 μmol/1
- Blood sugar level [1, 12]: 34.3 mg/dL
- Free fatty acids in blood [1, 12]: 556.6 μEq/l
- Ketone bodies in urine [1, 12]: +
- Acetoacetic acid in blood [1, 13]: 608 μmol/1
- Blood sugar level [1, 13]: 43.3 mg/dL
- Free fatty acids in blood [1, 13]: 507.5 μEq/l
- Ketone bodies in urine [1, 13]: -
- Acetoacetic acid in blood [1, 14]: 102 μmol/1
- Blood sugar level [1, 14]: 64.8 mg/dL
- Free fatty acids in blood [1, 14]: 118.2 μEq/l
- Ketone bodies in urine [1, 14]: -
- Acetoacetic acid in blood [1, 15]: 1,550 μmol/1
- Blood sugar level [1, 15]: 33.6 mg/dL
- Free fatty acids in blood [1, 15]: 1,862.3 μEq/l
- Ketone bodies in urine [1, 15]: +++
- LD50 [2]: 1,350 mg/kg

Compound: CC(C)OC(=O)C(C(=O)OC(C)C)=C1SCS1 [compound 1]
- LD50 [3]: > 5000 mg/kg

Compound: CC(C)OC(=O)C(C(=O)OC(C)C)=C1SCC(O)S1 (stereo not shown) [compound 8]
- Acetoacetic acid in blood [1, 16]: 260 µmol/L
- Blood sugar level [1, 16]: 48.4 mg/dL
- Free fatty acids in blood [1, 16]: 476 μEq/l
- Ketone bodies in urine [1, 16]: +
- Acetoacetic acid in blood [1, 17]: 586 µmol/L
- Blood sugar level [1, 17]: 41.0 mg/dL
- Free fatty acids in blood [1, 17]: 747 μEq/l
- Ketone bodies in urine [1, 17]: +
- Acetoacetic acid in blood [1, 18]: 76 µmol/L
- Blood sugar level [1, 18]: 53.5 mg/dL
- Free fatty acids in blood [1, 18]: 371 μEq/l
- Ketone bodies in urine [1, 18]: -
- Acetoacetic acid in blood [1, 19]: 1,232 μmol/l
- Blood sugar level [1, 19]: 32.0 mg/dL
- Free fatty acids in blood [1, 19]: 1,727 μEq/l
- Ketone bodies in urine [1, 19]: +++
- LD50 [3]: > 6590 mg/kg

Compound: CCOC(=O)C(C(=O)OC(C)C)=C1SCS1 [compound 2]
- LD50 [3]: > 5000 mg/kg

Compound: CC(C)OC(=O)C(C(=O)OC(C)C)=C1SC(C(=O)O)S1 (stereo not shown) [compound 3]
- Acetoacetic acid in blood [1, 8]: 220 µmol/L
- Blood sugar level [1, 8]: 38.4 mg/dL
- Free fatty acids in blood [1, 8]: 416 μEq/l
- Ketone bodies in urine [1, 8]: ++
- Acetoacetic acid in blood [1, 9]: 816 µmol/L
- Blood sugar level [1, 9]: 34.0 mg/dL
- Free fatty acids in blood [1, 9]: 306 μEq/l
- Ketone bodies in urine [1, 9]: +
- Acetoacetic acid in blood [1, 10]: 400 µmol/L
- Blood sugar level [1, 10]: 43.3 mg/dL
- Free fatty acids in blood [1, 10]: 418 μEq/l
- Ketone bodies in urine [1, 10]: +
- Acetoacetic acid in blood [1, 11]: 628 µmol/L
- Blood sugar level [1, 11]: 33.0 mg/dL
- Free fatty acids in blood [1, 11]: 1,423 μEq/l
- Ketone bodies in urine [1, 11]: +++
- LD50 [3]: > 5000 mg/kg

Compound: CC(C)OC(=O)C(C(=O)OC(C)C)=C1SCC[S+]1[O-] (stereo not shown) [compound 7]
- LD50 [3]: > 6000 mg/kg

Source: US5001143A, “Pharmaceutical composition for prophylactic and preventive of ketosis of livestocks” (Nihon Nohyaku Co., Ltd., priority 1983, dated 1991)
